Data published in US20230167075A1, “INTERLEUKIN INHIBITORS” (UNIVERSITY OF GREENWICH, priority 2020, published 2023).

What was measured:
Type in all cases: cell-based, human
[1] = test system: Interleukin (IL)-1 beta; assay: Inhibition of secreted Interleukin-1 beta in LPS-stimulated PBMCs (cytometric bead array); conditions: PBMCs stimulated with LPS, 24 hours
Experimental: (§1) The compounds of formulae (I), (IA) and (IB) may be investigated for inhibition of pro-inflammatory cytokines Interleukin (IL)-1p, 2, 4, 6, 8, 13 and 17A, in peripheral blood mononuclear cells (PBMCs) isolated from fresh human buffy coats by centrifugation on Lymphoprep™ (Stemcell Technologies). All human cells are grown in cell culture medium RPMI-1640 supplemented with 1% penicillin/streptomycin and 5% heat inactivated fetal bovine serum.
PBMCs stimulated with LPS (Salmonella enterica serotype typhimurium) are incubated for 24 hours containing the compounds under investigation, reconstituted in dimethyl sulfoxide (DMSO). The secreted levels of Interleukin-1(3 is measured in the cell culture supernatant using a cytometric bead array and the cell viability is quantified using Trypan blue.

[2] = test system: interleukin (IL)-6; assay: Inhibition of Interleukin-6 in PBMCs
Experimental: as §1

[3] = test system: interleukin (IL)-8; assay: Inhibition of Interleukin-8 in PBMCs
Experimental: as §1

[4] = test system: interleukin (IL)-17A; assay: Inhibition of secreted Interleukin-17A in PMA/ionomycin-stimulated PBMCs (cytometric bead array); conditions: PBMCs stimulated with PMA/ionomycin, 24 hours
Experimental: as §1
PBMCs stimulated with PMA/ionomycin are incubated for 24 hours containing the compounds under investigation, reconstituted in DMSO. The secreted levels of Interleukin-17A are measured in the cell culture supernatant using a cytometric bead array and the cell viability is quantified using Trypan blue.

[5] = test system: IL-2; assay: Inhibition of IL-2 release, stimulated CD4-positive T cells
Experimental: (§2) The compounds of formulae (I), (IA) and (IB) may be investigated for inhibition of pro-inflammatory cytokines Interleukin-2, 4 and 13 in human CD4-positive T cells isolated from fresh isolated PBMCS using a CD4-positive T cell isolation kit.
(§3) CD4-positive T cells stimulated with beads coated with antibodies against CD2, CD3 and CD28 are incubated for 48 hours containing the compounds under investigation, reconstituted in DMSO. The secreted levels of Interleukin-2, 4 and 13 are measured in the cell culture supernatant using a cytometric bead array and the cell viability is measured using an MTT (3-(4,5-dimethylthiazol-2-yl)-2,5-diphenyltetrazolium bromide) assay.
(§4) Secreted IL-4 levels may be measured using electrochemiluminescence (MSD kits, Meso Scale Discovery), while secreted IL-2 levels may be measured using proximity homogenous time-resolved fluorescence (HTRF) and the amount of living cells may be measured by addition of resazurin (PrestoBlue®).

[6] = test system: IL-4; assay: Inhibition of IL-4 release, stimulated CD4-positive T cells
Experimental: as §2, §3, §4

[7] = Inhibition of cell viability in the IL-2/IL-4 release assays; conditions: human; read-out: Max Effect, Inhibition of cell viability
Experimental: as §3, §4

[8] = test system: CD4-positive T cells; assay: as above
Experimental: as §3, §4

Compound | inhibition of Interleukin IL-1 beta [1] | inhibition of Interleukin IL-6 [2] | inhibition of Interleukin IL-8 [3] | inhibition of Interleukin IL-17A [4] | level of inhibition of IL-2 (in words) [5] | level of inhibition of IL-4 (in words) [6] | cytotoxicity at 48 h [7] [%] | inhibition of cell viability (in words) [8]
Nc1nnc(C(c2ccccc2)c2ccccc2)c(N)n1 [3,5-Diamino-6-(diphenylmethyl)-1,2,4-triazine] | moderate inhibition | moderate inhibition | high inhibition | high inhibition | good level of inhibition | good level of inhibition | 28 | without significant inhibition
Nc1nnc(-c2sc(Cl)c(Cl)c2Cl)c(N)n1 [3,5-diamino-6-[2-(3,4,5-trichlorothienyl)]-1,2,4-triazine] | inhibitory effect | inhibitory effect | inhibitory effect | inhibitory effect | – | – | – | –
